# Assays:
# [1] = test system: Phosphatidylinositol 4,5-bisphosphate 3-kinase catalytic subunit alpha isoform (Homo sapiens), P42336 [C420R]; experiment: Inhibition of PIK3CA C420R mutant (unknown origin) assessed as residual activity at 100 nM by KINOMEscan analysis relative to control
# [2] = biological target: T1, Ephrin type-B receptor 3 (Homo sapiens) (UniProt P54753); experiment: Inhibition of EPHB3 (unknown origin) assessed as residual activity at 100 nM by KINOMEscan analysis relative to control
# T1 sequence (whole entry): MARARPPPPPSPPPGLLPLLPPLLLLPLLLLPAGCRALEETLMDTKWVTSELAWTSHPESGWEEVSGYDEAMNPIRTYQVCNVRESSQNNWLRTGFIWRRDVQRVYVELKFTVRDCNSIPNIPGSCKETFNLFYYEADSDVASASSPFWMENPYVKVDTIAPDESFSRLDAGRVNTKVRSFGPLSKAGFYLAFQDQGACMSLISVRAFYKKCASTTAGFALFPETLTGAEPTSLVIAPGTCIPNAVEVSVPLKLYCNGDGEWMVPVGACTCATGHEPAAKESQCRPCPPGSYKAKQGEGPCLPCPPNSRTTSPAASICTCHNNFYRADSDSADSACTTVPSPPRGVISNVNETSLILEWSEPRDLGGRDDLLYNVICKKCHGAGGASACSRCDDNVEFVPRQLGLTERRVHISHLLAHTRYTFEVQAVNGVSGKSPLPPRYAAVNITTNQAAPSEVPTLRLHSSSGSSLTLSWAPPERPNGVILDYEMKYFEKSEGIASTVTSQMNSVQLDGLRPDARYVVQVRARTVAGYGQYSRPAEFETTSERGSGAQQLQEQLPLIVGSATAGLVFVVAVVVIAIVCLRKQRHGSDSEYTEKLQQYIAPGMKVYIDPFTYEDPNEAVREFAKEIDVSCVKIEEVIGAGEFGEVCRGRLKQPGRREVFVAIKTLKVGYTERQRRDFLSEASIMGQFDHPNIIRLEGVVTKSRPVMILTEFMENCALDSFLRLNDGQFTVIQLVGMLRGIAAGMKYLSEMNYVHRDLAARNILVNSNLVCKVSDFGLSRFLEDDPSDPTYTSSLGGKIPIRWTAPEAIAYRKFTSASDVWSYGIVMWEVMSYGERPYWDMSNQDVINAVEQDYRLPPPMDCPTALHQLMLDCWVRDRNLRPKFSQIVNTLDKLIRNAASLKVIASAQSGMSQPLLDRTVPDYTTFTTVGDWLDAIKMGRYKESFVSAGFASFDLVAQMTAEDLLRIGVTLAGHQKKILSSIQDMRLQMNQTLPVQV
# [3] = biological target: Mitogen-activated protein kinase kinase kinase 4 (Homo sapiens) (UniProt Q9Y6R4); experiment: Inhibition of MAP3K4 (unknown origin) assessed as residual activity at 100 nM by KINOMEscan analysis relative to control
# [4] = biological target: Mitogen-activated protein kinase kinase kinase kinase 4 (Homo sapiens) (UniProt O95819); experiment: Inhibition of MAP4K4 (unknown origin) assessed as residual activity at 100 nM by KINOMEscan analysis relative to control
# Sequence of Mitogen-activated protein kinase kinase kinase kinase 4 (Homo sapiens) (O95819 2-1239 limits assumed): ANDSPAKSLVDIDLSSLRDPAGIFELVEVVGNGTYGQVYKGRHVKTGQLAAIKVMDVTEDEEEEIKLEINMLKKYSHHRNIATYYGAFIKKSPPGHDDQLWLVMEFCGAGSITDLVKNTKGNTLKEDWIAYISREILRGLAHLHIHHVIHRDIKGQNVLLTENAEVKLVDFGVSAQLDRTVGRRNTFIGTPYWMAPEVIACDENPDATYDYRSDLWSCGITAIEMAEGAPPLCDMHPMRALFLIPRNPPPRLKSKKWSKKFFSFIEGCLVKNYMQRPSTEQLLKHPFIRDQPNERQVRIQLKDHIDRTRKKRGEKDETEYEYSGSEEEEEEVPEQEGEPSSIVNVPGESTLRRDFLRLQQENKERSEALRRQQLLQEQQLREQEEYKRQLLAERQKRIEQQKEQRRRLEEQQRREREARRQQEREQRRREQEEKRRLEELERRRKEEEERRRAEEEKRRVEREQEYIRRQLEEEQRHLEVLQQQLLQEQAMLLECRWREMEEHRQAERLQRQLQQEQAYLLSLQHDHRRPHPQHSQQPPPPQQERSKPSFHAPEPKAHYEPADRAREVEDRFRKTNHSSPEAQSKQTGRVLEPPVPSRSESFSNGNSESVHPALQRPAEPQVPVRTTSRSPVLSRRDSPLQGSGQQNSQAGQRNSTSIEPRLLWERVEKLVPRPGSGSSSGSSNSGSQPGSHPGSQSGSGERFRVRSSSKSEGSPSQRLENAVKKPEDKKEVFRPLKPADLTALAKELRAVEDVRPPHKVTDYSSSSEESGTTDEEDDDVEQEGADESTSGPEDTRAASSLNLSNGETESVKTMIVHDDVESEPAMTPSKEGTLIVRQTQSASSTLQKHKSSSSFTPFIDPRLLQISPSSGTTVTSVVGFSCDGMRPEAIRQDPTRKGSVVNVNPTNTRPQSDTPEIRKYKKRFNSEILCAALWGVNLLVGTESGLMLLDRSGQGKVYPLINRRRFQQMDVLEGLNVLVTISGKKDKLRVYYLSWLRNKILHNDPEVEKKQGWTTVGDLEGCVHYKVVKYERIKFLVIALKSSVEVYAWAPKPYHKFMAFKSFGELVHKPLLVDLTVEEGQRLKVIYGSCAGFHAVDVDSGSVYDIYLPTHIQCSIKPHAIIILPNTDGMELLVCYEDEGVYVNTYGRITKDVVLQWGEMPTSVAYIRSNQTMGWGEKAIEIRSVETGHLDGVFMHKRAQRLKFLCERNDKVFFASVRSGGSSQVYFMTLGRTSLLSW
# [5] = biological target: Misshapen-like kinase 1 (Homo sapiens) (UniProt Q8N4C8); experiment: Inhibition of MINK (unknown origin) assessed as residual activity at 100 nM by KINOMEscan analysis relative to control
# [6] = biological target: MAP kinase-interacting serine/threonine-protein kinase 1 (Homo sapiens) (UniProt Q9BUB5); experiment: Inhibition of MKNK1 (unknown origin) assessed as residual activity at 100 nM by KINOMEscan analysis relative to control
# Sequence of MAP kinase-interacting serine/threonine-protein kinase 1 (Homo sapiens) (Q9BUB5 whole entry, looked up): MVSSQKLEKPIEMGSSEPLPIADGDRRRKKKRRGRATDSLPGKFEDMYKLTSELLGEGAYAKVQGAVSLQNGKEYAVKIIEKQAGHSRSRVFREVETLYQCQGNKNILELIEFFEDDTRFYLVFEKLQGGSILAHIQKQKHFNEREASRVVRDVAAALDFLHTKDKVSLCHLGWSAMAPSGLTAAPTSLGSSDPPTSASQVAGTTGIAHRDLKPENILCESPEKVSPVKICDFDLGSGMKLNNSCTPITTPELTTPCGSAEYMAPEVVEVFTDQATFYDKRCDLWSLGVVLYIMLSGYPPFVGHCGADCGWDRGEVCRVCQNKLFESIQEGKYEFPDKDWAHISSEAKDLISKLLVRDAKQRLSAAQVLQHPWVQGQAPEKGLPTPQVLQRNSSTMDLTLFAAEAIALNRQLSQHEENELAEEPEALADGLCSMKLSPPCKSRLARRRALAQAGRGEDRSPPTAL
# [7] = test system: Mast/stem cell growth factor receptor Kit (Homo sapiens), P10721 [D816V]; experiment: Inhibition of KIT D816V mutant (unknown origin) assessed as residual activity at 100 nM by KINOMEscan analysis relative to control
# Sequence of Mast/stem cell growth factor receptor Kit (Homo sapiens), P10721 [D816V] (P10721 whole entry D816V): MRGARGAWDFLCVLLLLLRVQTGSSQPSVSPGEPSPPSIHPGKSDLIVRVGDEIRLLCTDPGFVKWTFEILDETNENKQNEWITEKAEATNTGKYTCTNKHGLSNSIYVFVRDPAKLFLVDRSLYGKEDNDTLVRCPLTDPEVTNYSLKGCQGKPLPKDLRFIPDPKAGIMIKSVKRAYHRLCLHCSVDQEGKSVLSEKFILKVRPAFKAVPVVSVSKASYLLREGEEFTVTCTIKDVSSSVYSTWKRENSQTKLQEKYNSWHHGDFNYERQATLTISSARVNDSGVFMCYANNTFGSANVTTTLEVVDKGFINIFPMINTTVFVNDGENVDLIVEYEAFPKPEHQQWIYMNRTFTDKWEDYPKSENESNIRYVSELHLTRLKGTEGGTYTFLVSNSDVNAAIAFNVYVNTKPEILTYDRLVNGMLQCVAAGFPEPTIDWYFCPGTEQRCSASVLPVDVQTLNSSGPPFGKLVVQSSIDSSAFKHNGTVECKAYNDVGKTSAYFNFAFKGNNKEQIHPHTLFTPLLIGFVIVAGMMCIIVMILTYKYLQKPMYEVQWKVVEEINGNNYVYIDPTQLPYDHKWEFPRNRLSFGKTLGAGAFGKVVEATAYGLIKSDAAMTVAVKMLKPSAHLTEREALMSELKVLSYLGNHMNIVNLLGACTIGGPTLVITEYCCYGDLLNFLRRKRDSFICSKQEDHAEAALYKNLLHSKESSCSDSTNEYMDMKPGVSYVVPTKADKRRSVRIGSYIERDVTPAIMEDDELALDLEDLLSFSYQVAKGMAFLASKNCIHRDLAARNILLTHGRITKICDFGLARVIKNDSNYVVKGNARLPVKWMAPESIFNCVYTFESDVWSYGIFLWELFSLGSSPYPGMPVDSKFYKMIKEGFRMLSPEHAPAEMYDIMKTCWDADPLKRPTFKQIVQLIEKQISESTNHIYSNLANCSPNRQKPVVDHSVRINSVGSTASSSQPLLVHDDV
# [8] = biological target: Serine/threonine-protein kinase 32B (Homo sapiens) (UniProt Q9NY57); experiment: Inhibition of YANK2 (unknown origin) assessed as residual activity at 100 nM by KINOMEscan analysis relative to control
# Sequence of Serine/threonine-protein kinase 32B (Homo sapiens) (Q9NY57 whole entry): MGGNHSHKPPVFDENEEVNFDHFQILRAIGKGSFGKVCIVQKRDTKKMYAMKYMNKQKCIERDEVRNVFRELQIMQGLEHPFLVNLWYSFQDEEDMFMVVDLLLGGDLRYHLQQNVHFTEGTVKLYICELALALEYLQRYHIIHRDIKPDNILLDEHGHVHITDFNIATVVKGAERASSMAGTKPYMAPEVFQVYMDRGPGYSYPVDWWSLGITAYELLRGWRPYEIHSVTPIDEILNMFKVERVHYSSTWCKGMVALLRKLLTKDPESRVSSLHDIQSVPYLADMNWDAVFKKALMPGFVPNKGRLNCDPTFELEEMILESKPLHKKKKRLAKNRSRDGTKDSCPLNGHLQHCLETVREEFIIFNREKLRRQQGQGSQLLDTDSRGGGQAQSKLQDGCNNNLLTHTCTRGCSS
# [9] = biological target: Serine/threonine-protein kinase pim-2 (Homo sapiens) (UniProt Q9P1W9); experiment: Inhibition of PIM2 (unknown origin) assessed as residual activity at 100 nM by KINOMEscan analysis relative to control
# Sequence of Serine/threonine-protein kinase pim-2 (Homo sapiens) (Q9P1W9 whole entry, looked up): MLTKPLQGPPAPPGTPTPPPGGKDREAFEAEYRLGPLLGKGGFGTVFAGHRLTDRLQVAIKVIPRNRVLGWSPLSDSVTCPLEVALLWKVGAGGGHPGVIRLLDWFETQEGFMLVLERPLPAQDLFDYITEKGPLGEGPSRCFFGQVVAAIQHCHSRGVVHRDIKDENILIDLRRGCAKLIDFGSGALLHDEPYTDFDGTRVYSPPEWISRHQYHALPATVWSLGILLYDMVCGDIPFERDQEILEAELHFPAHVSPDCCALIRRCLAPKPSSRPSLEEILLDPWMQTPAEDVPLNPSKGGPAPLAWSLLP
# [10] = test system: Mast/stem cell growth factor receptor Kit (Homo sapiens), P10721 [V559D]; experiment: Inhibition of KIT V559D mutant (unknown origin) assessed as residual activity at 100 nM by KINOMEscan analysis relative to control
# Sequence of Mast/stem cell growth factor receptor Kit (Homo sapiens), P10721 [V559D] (P10721 whole entry V559D): as the sequence (P10721 whole entry D816V) above, with V559D, V816D counted along it
# [11] = biological target: T2, Hormonally up-regulated neu tumor-associated kinase (Homo sapiens) (UniProt P57058); experiment: Inhibition of HUNK (unknown origin) assessed as residual activity at 100 nM by KINOMEscan analysis relative to control
# T2 sequence (whole entry): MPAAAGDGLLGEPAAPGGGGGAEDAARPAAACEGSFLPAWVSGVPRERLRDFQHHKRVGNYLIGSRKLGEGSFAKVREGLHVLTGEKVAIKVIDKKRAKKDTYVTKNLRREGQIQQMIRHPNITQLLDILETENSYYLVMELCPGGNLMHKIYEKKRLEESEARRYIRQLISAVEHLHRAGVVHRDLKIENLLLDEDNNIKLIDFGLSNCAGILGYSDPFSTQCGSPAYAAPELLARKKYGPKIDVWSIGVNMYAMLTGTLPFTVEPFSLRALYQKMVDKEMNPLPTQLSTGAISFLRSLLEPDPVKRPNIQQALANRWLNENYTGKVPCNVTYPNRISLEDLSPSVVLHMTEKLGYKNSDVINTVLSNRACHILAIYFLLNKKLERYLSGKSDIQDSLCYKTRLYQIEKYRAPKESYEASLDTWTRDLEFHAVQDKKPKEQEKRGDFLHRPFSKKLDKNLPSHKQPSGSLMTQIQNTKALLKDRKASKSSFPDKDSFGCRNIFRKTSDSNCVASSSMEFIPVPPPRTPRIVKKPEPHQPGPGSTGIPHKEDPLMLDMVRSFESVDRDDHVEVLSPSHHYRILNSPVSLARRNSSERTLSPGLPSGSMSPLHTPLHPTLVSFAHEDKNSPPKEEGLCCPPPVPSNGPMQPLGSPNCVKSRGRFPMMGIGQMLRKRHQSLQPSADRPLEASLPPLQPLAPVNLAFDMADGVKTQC
# Sequence of Phosphatidylinositol 4,5-bisphosphate 3-kinase catalytic subunit alpha isoform (Homo sapiens), P42336 [C420R] (P42336 whole entry C420R, canonical isoform): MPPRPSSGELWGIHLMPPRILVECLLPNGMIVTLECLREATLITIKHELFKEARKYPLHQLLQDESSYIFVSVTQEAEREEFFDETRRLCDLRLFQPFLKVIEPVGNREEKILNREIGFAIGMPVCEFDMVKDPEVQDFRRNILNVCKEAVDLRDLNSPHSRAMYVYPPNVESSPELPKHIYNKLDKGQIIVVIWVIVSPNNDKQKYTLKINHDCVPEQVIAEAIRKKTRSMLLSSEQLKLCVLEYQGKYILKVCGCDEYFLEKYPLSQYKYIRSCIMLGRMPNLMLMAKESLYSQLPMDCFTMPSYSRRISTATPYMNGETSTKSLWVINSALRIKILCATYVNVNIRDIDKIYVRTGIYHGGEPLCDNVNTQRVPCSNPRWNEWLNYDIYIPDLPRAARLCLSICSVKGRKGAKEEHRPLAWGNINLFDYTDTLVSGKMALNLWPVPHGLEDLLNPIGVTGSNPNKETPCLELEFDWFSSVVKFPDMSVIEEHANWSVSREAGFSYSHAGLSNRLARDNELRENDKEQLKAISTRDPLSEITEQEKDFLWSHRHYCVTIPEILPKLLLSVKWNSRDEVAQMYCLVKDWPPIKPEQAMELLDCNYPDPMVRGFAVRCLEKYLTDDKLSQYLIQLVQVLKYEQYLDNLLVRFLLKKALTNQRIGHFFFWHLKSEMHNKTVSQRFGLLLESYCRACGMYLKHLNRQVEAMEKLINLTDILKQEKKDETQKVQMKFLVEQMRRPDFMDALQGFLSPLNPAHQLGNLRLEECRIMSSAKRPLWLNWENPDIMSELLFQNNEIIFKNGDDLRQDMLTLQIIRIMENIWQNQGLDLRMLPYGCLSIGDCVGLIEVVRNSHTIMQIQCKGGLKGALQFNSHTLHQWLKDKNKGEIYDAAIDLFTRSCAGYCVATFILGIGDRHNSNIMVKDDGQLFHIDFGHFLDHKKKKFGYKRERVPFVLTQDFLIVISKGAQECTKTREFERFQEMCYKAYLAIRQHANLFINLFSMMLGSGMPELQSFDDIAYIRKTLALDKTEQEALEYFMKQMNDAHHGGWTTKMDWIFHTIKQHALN
smiles,measurement,setting,value
COc1cc2ncnc(N[C@H](C)c3cccc4ccccc34)c2cc1OC,Activity,[1],90%
same,Activity,[2],71%
same,Activity,[3],68%
same,Activity,[4],65%
same,Activity,[5],77%
same,Activity,[6],61%
same,Activity,[7],73%
same,Activity,[8],84%
same,Activity,[9],73%
same,Activity,[10],100%
same,Activity,[11],91%

# Reference: ChEMBL document CHEMBL5678818, “Discovery of potent SOS1 inhibitors that block RAS activation via disruption of the RAS-SOS1 interaction” (Proc Natl Acad Sci U S A, 2019)
